In patent US5424424A, “Tartaric acid derivatives of substituted dibenzoxazepine compounds, pharmaceutical compositions and methods of use” (G. D. Searle & Co., priority 1993, dated 1995):
Structures can show the parent of a compound that is named as a salt.

What was measured:
mice = experiment: Writhing Assay (phenylbenzoquinone-induced writhing, analgesia); format: in vivo, Charles River male albino mice; settings: 30 mg per kilogram, intragastric, 30 minutes before PBQ i.p.; analgesia = writhes equal to or less than one-half the median of saline control
From the text: The Writhing Assay is one of the most widely-used experimental procedures for measuring the analgesic activity of different narcotic and nonnarcotic analgesic agents, and involves the continuous, chemically-induced pain of visceral origin to an animal, such as a mouse or rat. [Gyires et al., Arch. int. Pharmacodyn, 267, 131-140 (984); C. Vander Wende et al., Fed. Proc., 15, 494 (1956); Koster et al., Fed. Proc., 18, 412 (1959); and Witken et al., J. Pharmacol. exp. Ther., 133, 400-408 (1961).] Chemicals which may be used to induce this pain include phenylbenzoquinone (PBQ) and acetic acid. As a result of the chemical irritation to the animal, a characteristic stretching and writhing of the animal (dorsiflexion of the animal's back, extension of its hindlimbs and the strong contraction of its abdominal musculature) will generally occur. […] Drugs which reduce the number of writhes of the animal appear to restore the normal nociceptive threshold of the animal.
Charles River male albino mice, weighing 20 to 30 grams, were used in this assay.
Thirty minutes after intragastric administration to ten mice of 30 mg per kilogram of body weight of a compound of the present invention ("test compound"), […] per 10 g of body weight of a 0.025% w/v solution of PB was injected intraperitoneally into each mouse. Ten mice which were given saline in place of a test compound of the invention were used as a control group.
Five minutes later, each mouse was individually placed into a glass beaker for observation, and the number of writhes occurring during the following ten-minute period was counted.
A test compound was considered to have produced analgesia in a mouse if, in accordance with the conditions set forth above, and under the test criteria employed for this assay, after the administration of 30 mg per kilogram of body weight of a compound of the present invention to the mouse, the number of writhes elicited by a mouse injected with PBQ was equal to, or less than, one-half the median number of writhes recorded for the saline-treated control group of mice that day, as described by Taber in "Predictive Value of Analgesic Assays in Mice and Rats," Advances in Biochemical Psychopharmacology, 8, 191 (1974).
The results for the particular compounds of the present invention analyzed in this assay, and discussed in the examples identified below which correspond thereto, are presented in Table 1 hereinbelow as fractions under the heading "WRITHING ASSAY." The fractions indicate the number of mice out of ten in which a test compound produced analgesia.

[1] = system: prostaglandin E2-induced contractions of segments of guinea pig ileum; experiment: Prostaglandin (PGE) Antagonism Assay in guinea pig ileum; format: tissue-based, Male albino guinea pigs; settings: dose ratio of prostaglandin E2 EC50 values; initial concentration 3 micromolar test compound, 37° C., incubated thirty minutes
Experimental: In order to determine the effectiveness of several of the compounds of the present invention ("test compounds") as prostaglandin E2 antagonists,a prostaglandin antagonism assay was conducted, as described below, to determine the ability of these compounds to inhibit prostaglandin E2 -induced contractions of segments of guinea pig ileum.
Male albino guinea pigs weighing 200 to 500 grams were sacrificed by cervical dislocation. The ilea were then quickly removed from the guinea pigs and placed in a modified Tyrode solution, a solution which is known to those skilled in the art, containing one-half of the usual amount of magnesium ions.
Segments of ileum about 2 cm long were then cut and mounted in a 10 mL tissue bath containing the modified Tyrode solution. The solution was maintained at 37° C. and aerated with a gaseous mixture of 95% oxygen and 5% carbon dioxide. Data for a control prostaglandin E2 dose response curve plotting concentration of prostaglandin E2 versus the intensity of contractions, detected isotonically, was then obtained by experimentally adjusting the dose of the prostaglandin E2 being injected into the tissue bath, in a manner known by those of skill in the art.
Solutions or suspensions containing an initial concentration (3 micromolar) of a test compound in modified Tyrode solution ("test solutions/suspensions") were then separately substituted for the control bath solution. Each test solution/suspension was then kept in constant contact with the ileum tissue, except for brief periods to drain the bath in preparation for rinsing with fresh test solution/suspension. A second prostaglandin E2 dose response curve was then generated for prostaglandin E2 in the presence of a test compound.
A control dose response curve is produced in isolated segments of guinea pig ileum mounted in an automated apparatus with six concentrations of prostaglandin E2. A solution or suspension of test compound is substituted for the control bathing solution and is incubated for thirty minutes. An additional prostaglandin E2 dose response curve is then performed in the presence of the test compound. A dose ratio is calculated from the EC50 values obtained from duplicate replications on each concentration of the test compound.
A dose ratio of EC50 doses was calculated from the results of each test in a manner known by those of skill in the art, and described above.
The compounds of the present invention which were tested in this assay, and for which results are presented in Table 1, correspond to the particular examples specified in Table 1.

| SMILES | WRITHING ASSAY I.G.: number of mice out of ten in which a test compound produced analgesia (mice) | PGE ANTAGONISM IN GUINEA PIG ILEUM Dose Ratio [1] |
| --- | --- | --- |
| CC(=O)O[C@H](C(=O)NCc1cccnc1)[C@H](OC(C)=O)C(=O)N1Cc2ccccc2Oc2ccc(Cl)cc21 [Example 4, αS,βS-Bis(acetyloxy)-8-chloro-γ-oxo-N-(3-pyridinylmethyl)-dibenz[b,f][1,4]oxazepine-10(11H)-butanamide, hydrochloride] | 9/10 | 0.74 |
| CC(=O)O[C@@H](C(=O)NCc1cccnc1)[C@@H](OC(C)=O)C(=O)N1Cc2ccccc2Oc2ccc(Cl)cc21 [Example 8, αR,βR-Bis(acetyloxy)-8-chloro-γ-oxo-N-(3-pyridinylmethyl)dibenz[b,f][1,4]oxazepine-10(11H)]-butanamide, hydrochloride] | 6/10 | 2.4 |
| CC(=O)O[C@H](C(=O)NCCN(C)C)[C@H](OC(C)=O)C(=O)N1Cc2ccccc2Oc2ccc(Cl)cc21 [Example 2, αS,βS-Bis(acetyloxy)-8-chloro-N-[2-(dimethylamino)ethyl]-γ-oxodibenz[b,f][1,4]oxazepine-10(11H)-butanamide, monohydrochloride] | 0/10 |  |
| CC(=O)O[C@@H](C(=O)NCc1ccccn1)[C@@H](OC(C)=O)C(=O)N1Cc2ccccc2Oc2ccc(Cl)cc21 [Example 9, αR,βR-Bis(acetyloxy)-8-chloro-γ-oxo-N-(2-pyridinylmethyl)dibenz[b,f][1,4]oxazepine-10(11H)-butanamide, hydrochloride] | 5/10 | 1.1 |
| CC(=O)O[C@@H](C(=O)NCc1ccncc1)[C@@H](OC(C)=O)C(=O)N1Cc2ccccc2Oc2ccc(Cl)cc21 [Example 7, αR,βR-Bis(acetyloxy)-8-chloro-γ-oxo-N-(4-pyridinylmethyl)dibenz[b,f][1,4]oxazepine-10(11H)-butanamide, hydrochloride] | 8/10 | 1.2 |
| CC(=O)O[C@H](C(=O)NCc1ccncc1)[C@H](OC(C)=O)C(=O)N1Cc2ccccc2Oc2ccc(Cl)cc21 [Example 3, αS,βS-Bis(acetyloxy)-8-chloro-γ-oxo-N-(4-pyridinylmethyl)-dibenz[b,f][1,4]oxazepine-10(11H)-butanamide, hydrochloride] | 5/10 | 1.3 |
| CC(=O)O[C@H](C(=O)NCc1ccccn1)[C@H](OC(C)=O)C(=O)N1Cc2ccccc2Oc2ccc(Cl)cc21 [Example 5, αS,βS-Bis(acetyloxy)-8-chloro-γ-oxo-N-(2-pyridinylmethyl)dibenz[b,f][1,4]oxazepine-10(11H)-butanamide, hydrochloride] | 5/10 | 1.7 |
